Data as given in ChEMBL document CHEMBL1138731, “Conversion of human-selective PPARalpha agonists to human/mouse dual agonists: a molecular modeling analysis” (Bioorg Med Chem Lett, 2004).

Tests used:
[1] = molecular target: T1, Peroxisome proliferator-activated receptor alpha (Mus musculus, UniProt P23204); assay: In vitro inhibition of mouse Peroxisome proliferator activated receptor alpha
T1 sequence (P23204 whole entry): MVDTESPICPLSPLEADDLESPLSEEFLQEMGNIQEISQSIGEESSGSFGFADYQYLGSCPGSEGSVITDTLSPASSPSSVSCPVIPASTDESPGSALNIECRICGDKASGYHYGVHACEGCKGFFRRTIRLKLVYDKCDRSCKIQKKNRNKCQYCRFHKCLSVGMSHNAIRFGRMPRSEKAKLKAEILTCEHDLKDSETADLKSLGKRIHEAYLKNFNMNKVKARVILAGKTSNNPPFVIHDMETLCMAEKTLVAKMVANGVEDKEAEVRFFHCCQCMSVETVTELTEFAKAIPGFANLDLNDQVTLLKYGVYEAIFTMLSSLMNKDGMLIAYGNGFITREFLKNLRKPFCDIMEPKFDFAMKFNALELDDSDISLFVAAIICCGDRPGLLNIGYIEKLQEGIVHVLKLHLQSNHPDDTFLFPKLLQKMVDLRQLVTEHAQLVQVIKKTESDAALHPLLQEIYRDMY

[2] = molecular target: T1, Peroxisome proliferator-activated receptor alpha; assay: Transactivation activity for mouse Peroxisome proliferator activated receptor alpha
[3] = molecular target: T2, Peroxisome proliferator-activated receptor alpha (Homo sapiens, UniProt Q07869); assay: Transactivation activity for human Peroxisome proliferator activated receptor alpha
T2 sequence (Q07869 whole entry): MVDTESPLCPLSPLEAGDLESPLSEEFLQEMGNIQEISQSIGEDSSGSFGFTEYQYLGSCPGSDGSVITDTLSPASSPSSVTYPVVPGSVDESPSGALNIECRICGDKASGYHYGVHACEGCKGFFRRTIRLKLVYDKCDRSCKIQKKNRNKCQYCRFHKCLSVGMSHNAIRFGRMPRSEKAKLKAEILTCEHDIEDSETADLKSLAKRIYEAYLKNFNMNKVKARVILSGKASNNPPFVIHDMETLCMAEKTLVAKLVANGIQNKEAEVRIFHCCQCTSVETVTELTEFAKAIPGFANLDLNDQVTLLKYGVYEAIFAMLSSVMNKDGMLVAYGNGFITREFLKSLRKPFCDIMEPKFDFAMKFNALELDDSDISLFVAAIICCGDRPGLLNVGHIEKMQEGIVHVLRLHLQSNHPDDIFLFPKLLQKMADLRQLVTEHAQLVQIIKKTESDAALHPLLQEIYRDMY

[4] = molecular target: T2, Peroxisome proliferator-activated receptor alpha; assay: In vitro inhibition of human Peroxisome proliferator activated receptor alpha
[5] = test system: Mus musculus; assay: Effect on level of triglyceride at a dose of 3 mg/kg in mice treated for 7 days; type: functional

| Compound | IC50 [1] | EC50 [2] | EC50 [3] | IC50 [4] | Triglyceride level [5] |
| --- | --- | --- | --- | --- | --- |
| Cc1oc(-c2ccccc2)nc1CCOc1ccc(CC(C)(Oc2ccccc2)C(=O)O)cc1 (centres undefined) | – | – | – | – | ~56% |
| Cc1oc(-c2ccc(-c3ccccc3)cc2)nc1CCOc1ccc(CC(C)(Oc2ccccc2)C(=O)O)cc1 (centres undefined) | 7020 nM | 2340 nM | – | – | – |
| Cc1ccc(OC(C)(Cc2ccc(OCCc3nc(-c4ccccc4)oc3C)cc2)C(=O)O)cc1 (centres undefined) | 1400 nM | 585 nM | 7 nM | 64 nM | – |
| Cc1oc(-c2ccccc2)nc1CCOc1ccc(CC(C)(Oc2ccc(C(C)(C)C)cc2)C(=O)O)cc1 (centres undefined) | 515 nM | 211 nM | 11 nM | 149 nM | – |
| Cc1ccc(OC(C)(Cc2ccc(OCCc3nc(-c4cccc(-c5ccccc5)c4)oc3C)cc2)C(=O)O)cc1 (centres undefined) | 530 nM | 151 nM | 23 nM | 306 nM | – |
| Cc1oc(-c2cccc(-c3ccccc3)c2)nc1CCOc1ccc(CC(C)(Oc2ccccc2)C(=O)O)cc1 (centres undefined) | 404 nM | 173 nM | – | – | – |

Second part, led by results:

| IC50 [1] | EC50 [2] | EC50 [3] | IC50 [4] | Compound | Triglyceride level [5] |
| --- | --- | --- | --- | --- | --- |
| 1460 nM | 1040 nM | 39 nM | 375 nM | Cc1ccc(OC(C)(Cc2ccc(OCCc3nc(-c4ccc(-c5ccccc5)cc4)oc3C)cc2)C(=O)O)cc1 (centres undefined) | – |
| 146 nM | 91 nM | 49 nM | 133 nM | Cc1oc(-c2cccc(-c3ccccc3)c2)nc1CCOc1ccc(CC(C)(Oc2ccc(C(C)(C)C)cc2)C(=O)O)cc1 (centres undefined) | ~39% |
| 700 nM | 1170 nM | 260 nM | – | Cc1oc(-c2ccc(-c3ccccc3)cc2)nc1CCOc1ccc(CC(C)(Oc2ccc(C(C)(C)C)cc2)C(=O)O)cc1 (centres undefined) | – |
